How the values were obtained:
[1] = Flowability of the bulk material; type: physicochemical; conditions: 500 μm sieved bulk non-granulated material
Description: (§1) The increase in density of the granulated material relative to the non-granulated material results in improved flow characteristics which facilitate easier handling during manufacturing processes such as formulation. Bulk and granulated densities can be measured with a measuring cylinder. The values for the bulk (ρb) and tap (ρt) densities can be used to calculate index of compressibility (% Compressibility), which is indicative of the flow properties of the material. The % Compressibility can be calculated by the following formula: % Compressibility=[(ρt−−ρb)/ρt-]×100%. See, e.g., The theory and practice of industrial pharmacy, by L. Lachman, H. Lieberman, and J. Kanig, in Varghese Publishing House, 3rd Indian Edition, (Hind Rajasthan Bldng, Dadar Bombay 400 014), 1987, p. 184. Also, flowability of the material can be determined by Flodex analysis. The Flodex Test Apparatus is ideal for determining the intrinsic flowability of powders (which is recommended for quality control of powders). The Flodex instrument includes a complete set of index flow disks with opening of different diameter. A tested powder is allowed to flow through the opening. […] See, e.g., Composite Method to Quantify Powder Flow as a Screening Method in Early Tablet or Capsule Formulation Development, by Michael K. Taylor, Jeri Ginsburg, Anthony Hickey, and Ferdous Gheyas, in AAPS PharmSciTech, 2000, 1(3): article 18.

[2] = Regional absorption studies; conditions: in vivo
[3] = Bulk, granule and pellet density measurement; type: physicochemical
Description: as §1

SMILES: CCO[C@@H]1OC(=O)C[C@@H]1NC(=O)[C@@H]1CCCN1C(=O)[C@@H](NC(=O)c1ccc(N)c(Cl)c1)C(C)(C)C [compound of Formula (I)]
- flowability [1]: very poor flowability
- regional absorption [2]: colonic absorption
- density of the bulk material ([3]; 500 μm sieved bulk non-granulated material): around 0.24 g/cm^3
- density of the natural form ([3]; natural (non-granulated) form): about 0.2 g/cm^3
